This note sets out measurements from patent US20240101576A1, “HETEROCYCLIC INHIBITORS OF EGFR AND/OR HER2, FOR USE IN THE TREATMENT OF CANCER” (Scorpion Therapeutics, Inc., priority 2020, published 2024).

Common to all, as to type: cell-based
The target in one experiment is T1, EGFR WT (Ba/F3 cells) (Homo sapiens, UniProt P00533).
T1 construct: expressed in transfected cells; host or cells: Ba/F3 (murine pro-B cells), retroviral transduction, puromycin selection, maintained with EGF
The experiment in a line: Inhibitor activity on EGFR-dependent cell growth (CellTiter-Glo, 72 h), Ba/F3 EGFR WT. The note with it: read-out: BaF3 WT IC50. In a few lines:
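This growth assay used Ba/F3 cells that depend on wild-type EGFR and are kept in EGF without IL3. Compounds were made up as 10 mM DMSO stocks and diluted 3-fold over 10 points. 120 nL went onto 600 cells/well. After 72 hours, 40 μL CellTiter-Glo was added and luminescence read on EnVision after 30 min.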
For orientation: Cellular ATP, detected with luciferase, serves as a proxy for viable cell number.

In experiment [1] the target is T2, EGFR exon 20 NPG Ins D770_N771 (Ba/F3 cells) (Homo sapiens, UniProt P00533, INS770NPG).
T2 construct: expressed in transfected cells; host or cells: Ba/F3 (murine pro-B cells), retroviral transduction, puromycin selection, IL3-independent pool
T2 sequence (P00533 with tags, fused parts or gaps INS770NPG): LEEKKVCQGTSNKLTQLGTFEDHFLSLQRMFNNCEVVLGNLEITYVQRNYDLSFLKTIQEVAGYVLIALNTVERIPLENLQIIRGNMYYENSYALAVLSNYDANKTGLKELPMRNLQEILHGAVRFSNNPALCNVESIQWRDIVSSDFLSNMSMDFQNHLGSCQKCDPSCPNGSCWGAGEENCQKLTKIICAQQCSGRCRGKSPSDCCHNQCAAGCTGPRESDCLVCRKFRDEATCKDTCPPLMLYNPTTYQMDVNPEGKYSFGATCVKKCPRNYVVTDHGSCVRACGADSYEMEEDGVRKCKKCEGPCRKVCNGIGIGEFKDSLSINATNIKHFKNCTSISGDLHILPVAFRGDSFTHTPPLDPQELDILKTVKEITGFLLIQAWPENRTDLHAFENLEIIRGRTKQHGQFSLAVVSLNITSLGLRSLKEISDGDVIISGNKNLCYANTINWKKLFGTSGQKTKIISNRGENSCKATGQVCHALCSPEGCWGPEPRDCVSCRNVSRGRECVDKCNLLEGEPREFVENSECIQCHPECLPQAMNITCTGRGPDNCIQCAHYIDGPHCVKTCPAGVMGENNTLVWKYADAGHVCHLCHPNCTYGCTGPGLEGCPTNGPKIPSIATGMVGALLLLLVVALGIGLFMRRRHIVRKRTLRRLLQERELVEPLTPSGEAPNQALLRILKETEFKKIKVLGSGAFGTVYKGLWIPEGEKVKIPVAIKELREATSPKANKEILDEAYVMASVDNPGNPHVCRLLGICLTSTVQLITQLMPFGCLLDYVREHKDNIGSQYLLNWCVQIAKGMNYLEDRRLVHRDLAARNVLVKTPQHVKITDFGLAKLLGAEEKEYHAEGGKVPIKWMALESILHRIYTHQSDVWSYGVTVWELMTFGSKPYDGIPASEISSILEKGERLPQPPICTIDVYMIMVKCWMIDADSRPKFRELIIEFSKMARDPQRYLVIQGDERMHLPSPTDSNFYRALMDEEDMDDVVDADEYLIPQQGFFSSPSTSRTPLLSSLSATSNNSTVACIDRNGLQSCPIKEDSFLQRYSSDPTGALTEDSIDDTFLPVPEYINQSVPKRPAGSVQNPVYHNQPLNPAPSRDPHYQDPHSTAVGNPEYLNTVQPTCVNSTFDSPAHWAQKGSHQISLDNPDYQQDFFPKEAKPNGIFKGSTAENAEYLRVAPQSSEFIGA
The experiment in a line: Inhibitor activity on EGFR-dependent cell growth (CellTiter-Glo, 72 h), Ba/F3 EGFR exon 20 NPG Ins. The note with it: read-out: BaF3 NPG IC50. In a few lines: (§1)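 IC50s derive from a sigmoidal dose–response fit of CellTiter-Glo signal. The signal was normalised between […]-treated cells and cell-free medium. Ba/F3 mutant-EGFR cells, seeded at 400–800/well depending on the line, had 72 h of exposure to a 10-point, 3-fold compound series.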

Experiment [2] has as its target T3, EGFR exon 20 ASV Ins V769_D770 (Ba/F3 cells) (Homo sapiens, UniProt P00533, INS769ASV).
T3 construct: expressed in transfected cells; host or cells: Ba/F3 (murine pro-B cells), retroviral transduction, puromycin selection, IL3-independent pool
The experiment in a line: Inhibitor activity on EGFR-dependent cell growth (CellTiter-Glo, 72 h), Ba/F3 EGFR exon 20 ASV Ins. The settings on record: read-out: BaF3 ASV IC50. In a few lines: as §1

Experiment [3] concerns the target T4, EGFR exon 20 SVD Ins D770_N771 (Ba/F3 cells) (Homo sapiens, UniProt P00533, INS770SVD).
T4 construct: expressed in transfected cells; host or cells: Ba/F3 (murine pro-B cells), retroviral transduction, puromycin selection, IL3-independent pool
Kind of experiment: Inhibitor activity on EGFR-dependent cell growth (CellTiter-Glo, 72 h), Ba/F3 EGFR exon 20 SVD Ins. The note with it: read-out: BaF3 SVD IC50. The method, boiled down: as §1

Experiment [4] has as its target T5, EGFR exon 20 FQEA Ins A763_V764 (Ba/F3 cells) (Homo sapiens, UniProt P00533, INS763FQEA).
T5 construct: expressed in transfected cells; host or cells: Ba/F3 (murine pro-B cells), retroviral transduction, puromycin selection, IL3-independent pool
Kind of experiment: Inhibitor activity on EGFR-dependent cell growth (CellTiter-Glo, 72 h), Ba/F3 EGFR exon 20 FQEA Ins. The settings on record: read-out: BaF3 FQEA IC50. The method, boiled down: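 Ba/F3 cells engineered with each EGFR variant were plated (400, 600 or 800 per well for L858R, L858R/C797S, and exon 19del/FQEA). They were exposed for 72 hours to compound serially diluted from a 10 mM DMSO stock. Remaining viable cells were quantified by CellTiter-Glo, and IC50 was curve-fitted.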

T5 sequence (P00533 with tags, fused parts or gaps INS763FQEA): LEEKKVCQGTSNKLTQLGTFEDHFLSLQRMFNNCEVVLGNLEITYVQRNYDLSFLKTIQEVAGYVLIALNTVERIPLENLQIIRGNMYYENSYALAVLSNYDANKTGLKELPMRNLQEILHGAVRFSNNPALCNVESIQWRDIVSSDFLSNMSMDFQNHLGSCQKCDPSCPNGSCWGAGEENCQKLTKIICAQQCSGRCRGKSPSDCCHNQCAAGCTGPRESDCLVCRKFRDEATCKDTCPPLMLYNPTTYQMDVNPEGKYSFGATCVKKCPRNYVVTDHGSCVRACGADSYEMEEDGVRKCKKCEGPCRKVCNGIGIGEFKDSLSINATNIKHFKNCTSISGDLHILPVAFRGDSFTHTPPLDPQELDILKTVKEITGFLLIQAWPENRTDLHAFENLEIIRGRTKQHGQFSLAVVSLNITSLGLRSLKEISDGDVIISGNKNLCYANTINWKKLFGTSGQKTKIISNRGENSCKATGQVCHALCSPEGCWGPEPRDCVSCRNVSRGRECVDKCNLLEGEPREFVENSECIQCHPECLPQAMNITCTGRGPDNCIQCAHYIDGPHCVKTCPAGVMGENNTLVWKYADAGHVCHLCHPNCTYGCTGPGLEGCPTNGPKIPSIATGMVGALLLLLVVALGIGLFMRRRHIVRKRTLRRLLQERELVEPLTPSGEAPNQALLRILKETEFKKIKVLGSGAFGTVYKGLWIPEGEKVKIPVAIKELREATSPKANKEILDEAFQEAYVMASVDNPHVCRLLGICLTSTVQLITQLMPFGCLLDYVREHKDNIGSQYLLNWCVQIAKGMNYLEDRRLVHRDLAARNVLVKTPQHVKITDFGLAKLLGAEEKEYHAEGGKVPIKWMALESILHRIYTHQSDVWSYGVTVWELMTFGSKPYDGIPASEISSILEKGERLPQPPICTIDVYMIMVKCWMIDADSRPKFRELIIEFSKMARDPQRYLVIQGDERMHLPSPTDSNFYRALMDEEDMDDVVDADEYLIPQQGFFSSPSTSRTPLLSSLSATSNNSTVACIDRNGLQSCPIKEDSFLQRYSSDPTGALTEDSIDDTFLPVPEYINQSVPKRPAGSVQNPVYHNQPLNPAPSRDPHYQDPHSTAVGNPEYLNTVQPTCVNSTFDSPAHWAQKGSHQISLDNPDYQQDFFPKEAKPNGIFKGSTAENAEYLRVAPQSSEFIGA
T1 sequence (P00533 25-1210): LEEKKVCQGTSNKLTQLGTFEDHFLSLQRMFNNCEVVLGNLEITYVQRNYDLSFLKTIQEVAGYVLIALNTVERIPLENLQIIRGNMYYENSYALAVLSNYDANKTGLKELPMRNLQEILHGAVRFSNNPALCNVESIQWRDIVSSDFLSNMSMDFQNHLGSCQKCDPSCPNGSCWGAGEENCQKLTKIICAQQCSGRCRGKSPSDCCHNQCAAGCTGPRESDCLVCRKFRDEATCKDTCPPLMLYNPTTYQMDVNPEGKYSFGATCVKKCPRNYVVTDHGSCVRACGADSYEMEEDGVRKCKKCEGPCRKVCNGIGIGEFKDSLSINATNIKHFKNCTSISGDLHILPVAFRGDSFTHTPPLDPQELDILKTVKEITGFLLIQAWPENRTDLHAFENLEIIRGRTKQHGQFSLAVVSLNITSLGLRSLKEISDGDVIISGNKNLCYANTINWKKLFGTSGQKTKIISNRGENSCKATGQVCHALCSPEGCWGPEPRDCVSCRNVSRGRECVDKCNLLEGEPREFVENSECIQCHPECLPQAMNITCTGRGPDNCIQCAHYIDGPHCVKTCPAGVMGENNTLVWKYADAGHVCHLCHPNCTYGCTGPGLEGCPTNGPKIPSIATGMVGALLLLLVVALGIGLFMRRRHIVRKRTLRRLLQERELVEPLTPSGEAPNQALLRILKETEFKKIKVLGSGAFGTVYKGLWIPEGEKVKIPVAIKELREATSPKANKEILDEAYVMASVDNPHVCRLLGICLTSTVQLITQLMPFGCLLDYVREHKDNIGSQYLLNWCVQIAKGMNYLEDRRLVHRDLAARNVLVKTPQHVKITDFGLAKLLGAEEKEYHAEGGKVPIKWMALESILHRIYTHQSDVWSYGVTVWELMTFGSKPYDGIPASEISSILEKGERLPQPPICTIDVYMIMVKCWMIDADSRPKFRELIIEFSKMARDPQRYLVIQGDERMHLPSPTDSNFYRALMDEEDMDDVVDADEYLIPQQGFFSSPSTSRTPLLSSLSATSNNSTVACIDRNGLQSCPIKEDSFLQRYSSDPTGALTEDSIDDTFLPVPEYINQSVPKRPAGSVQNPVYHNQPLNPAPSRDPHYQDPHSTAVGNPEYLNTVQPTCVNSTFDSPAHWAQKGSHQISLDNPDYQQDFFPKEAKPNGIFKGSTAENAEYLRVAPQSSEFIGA
T4 sequence (P00533 with tags, fused parts or gaps INS770SVD): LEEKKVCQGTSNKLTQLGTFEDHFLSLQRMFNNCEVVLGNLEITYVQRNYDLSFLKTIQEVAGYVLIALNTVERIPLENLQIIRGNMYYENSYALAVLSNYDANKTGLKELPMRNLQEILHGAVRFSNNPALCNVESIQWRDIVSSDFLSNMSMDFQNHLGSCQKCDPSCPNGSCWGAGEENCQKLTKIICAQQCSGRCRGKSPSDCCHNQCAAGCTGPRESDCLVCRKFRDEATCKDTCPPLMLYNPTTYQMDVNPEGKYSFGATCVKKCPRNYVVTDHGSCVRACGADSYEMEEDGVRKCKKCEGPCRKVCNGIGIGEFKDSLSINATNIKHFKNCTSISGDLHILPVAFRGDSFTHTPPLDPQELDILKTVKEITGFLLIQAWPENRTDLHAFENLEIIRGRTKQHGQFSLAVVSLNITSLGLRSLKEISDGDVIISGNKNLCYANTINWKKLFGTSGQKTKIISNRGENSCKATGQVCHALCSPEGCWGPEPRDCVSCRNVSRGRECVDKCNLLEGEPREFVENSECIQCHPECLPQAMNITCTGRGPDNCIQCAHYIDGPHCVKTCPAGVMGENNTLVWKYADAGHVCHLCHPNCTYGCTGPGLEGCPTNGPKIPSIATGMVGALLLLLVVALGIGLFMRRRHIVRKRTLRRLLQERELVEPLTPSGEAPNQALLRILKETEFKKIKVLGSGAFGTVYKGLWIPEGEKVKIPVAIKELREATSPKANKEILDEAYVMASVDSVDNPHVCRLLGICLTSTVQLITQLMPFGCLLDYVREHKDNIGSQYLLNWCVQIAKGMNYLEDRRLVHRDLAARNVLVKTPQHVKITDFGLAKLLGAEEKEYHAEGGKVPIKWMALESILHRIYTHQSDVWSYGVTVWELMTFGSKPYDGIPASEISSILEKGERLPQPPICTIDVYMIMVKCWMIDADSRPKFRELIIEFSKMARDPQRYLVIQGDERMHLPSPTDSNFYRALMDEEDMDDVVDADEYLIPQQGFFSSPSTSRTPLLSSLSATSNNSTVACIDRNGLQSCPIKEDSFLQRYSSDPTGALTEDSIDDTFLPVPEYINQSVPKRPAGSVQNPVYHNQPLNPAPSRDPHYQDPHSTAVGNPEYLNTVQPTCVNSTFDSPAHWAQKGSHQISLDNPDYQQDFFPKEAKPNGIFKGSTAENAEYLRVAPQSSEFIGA

As usually defined, the IC50 is the point on the concentration scale where inhibition reaches its midpoint. Regarding `COc1c(Cl)cccc1Nc1c(-c2ccnc3ccc(O[C@H]4CCCOC4)nc23)[nH]c2c1C(=O)NCC2` [compound 741, 3-[(3-chloro-2-methoxyphenyl)amino]-2-[6-[(3S)-oxan-3-yloxy]-1,5-naphthyridin-4-yl]-1H,5H,6H,7H-pyrrolo[3,2-c]pyridin-4-one; formic acid], the half-maximal inhibitory concentration (IC50) (at EGFR WT (Ba/F3 cells); in experiment [1]; in experiment [2]; in experiment [3]; in experiment [4]) was less than 0.1 µM in each case.
On to `COc1c(F)cccc1Nc1c(-c2ccncc2F)[nH]c2c1C(=O)NC[C@@H]2CC1COC1` [469b], for which the IC50 (at EGFR WT (Ba/F3 cells); in experiment [1]; in experiment [2]; in experiment [3]; in experiment [4]) was greater than 1 µM in each case.
Regarding `COc1c(Cl)cccc1Nc1c(-c2ccnc3ccc(OCC4CN(C)C4)nc23)[nH]c2c1C(=O)NCC2` [compound 738, 3-[(3-chloro-2-methoxyphenyl)amino]-2-[6-[(1-methylazetidin-3-yl)methoxy]-1,5-naphthyridin-4-yl]-1H,5H,6H,7H-pyrrolo[3,2-c]pyridin-4-one], the IC50 is 0.1 to 1 µM on EGFR WT (Ba/F3 cells); less than 0.1 µM in experiment [1]; less than 0.1 µM in experiment [2]; less than 0.1 µM in experiment [3]; 0.1 to 1 µM in experiment [4].
With `COc1c(Cl)cccc1Nc1c(-c2ccnc3ccc(OC[C@H]4CCO4)nc23)[nH]c2c1C(=O)NCC2` [compound 734, 3-[(3-chloro-2-methoxyphenyl)amino]-2-[6-[(2R)-oxetan-2-ylmethoxy]-1,5-naphthyridin-4-yl]-1H,5H,6H,7H-pyrrolo[3,2-c]pyridin-4-one], the IC50 was 0.1 to 1 µM on EGFR WT (Ba/F3 cells); less than 0.1 µM in experiment [1]; less than 0.1 µM in experiment [2]; less than 0.1 µM in experiment [3]; less than 0.1 µM in experiment [4].
As for `COc1c(F)cccc1Nc1c(-c2ccncc2F)[nH]c2c1C(=O)NC[C@@H]2C[C@H]1CCO1` [Compound 422c, (7S)-3-[(3-fluoro-2-methoxyphenyl)amino]-2-(3-fluoropyridin-4-yl)-7-[(2S)-oxetan-2-ylmethyl]-1H,5H,6H,7H-pyrrolo[3,2-c]pyridin-4-one], the IC50 at EGFR WT (Ba/F3 cells) is greater than 1 µM; in experiment [1], 0.1 to 1 µM; in experiment [2], 0.1 to 1 µM; in experiment [3] it was 0.1 to 1 µM; in experiment [4], 0.1 to 1 µM.
Take `COc1c(Cl)cccc1Nc1c(-c2ccnc3ccc(OCC4COC4)nc23)[nH]c2c1C(=O)NCC2` [compound 737, 3-[(3-chloro-2-methoxyphenyl)amino]-2-[6-(oxetan-3-ylmethoxy)-1,5-naphthyridin-4-yl]-1H,5H,6H,7H-pyrrolo[3,2-c] pyridin-4-one]: the IC50 at EGFR WT (Ba/F3 cells) was 0.1 to 1 µM; in experiment [1], less than 0.1 µM; in experiment [2] it was less than 0.1 µM; in experiment [3], less than 0.1 µM; in experiment [4], less than 0.1 µM.
As for `COc1c(Cl)cccc1Nc1c(-c2ccnc(Nc3ccn(C)n3)n2)[nH]c2c1C(=O)NCC2` [compound 509, 3-[(3-chloro-2-methoxyphenyl)amino]-2-{2-[(1-methylpyrazol-3-yl)amino]pyrimidin-4-yl}-1H,5H,6H,7H-pyrrolo[3,2-c]pyridin-4-one], the half-maximal inhibitory concentration (IC50) (at EGFR WT (Ba/F3 cells); in experiment [1]; in experiment [2]; in experiment [3]; in experiment [4]) was less than 0.1 µM each time.
`COc1c(Cl)cccc1Nc1c(-c2ccnc3ccc(OC[C@@H]4CCO4)nc23)[nH]c2c1C(=O)NCC2` [compound 735, 3-[(3-chloro-2-methoxyphenyl)amino]-2-[6-[(2S)-oxetan-2-ylmethoxy]-1,5-naphthyridin-4-yl]-1H,5H,6H, 7H-pyrrolo[3,2-c]pyridin-4-one]: the IC50 is 0.1 to 1 µM at EGFR WT (Ba/F3 cells); less than 0.1 µM in experiment [1]; less than 0.1 µM in experiment [2]; less than 0.1 µM in experiment [3]; less than 0.1 µM in experiment [4].
With `COc1c(Cl)cccc1Nc1c(-c2ccnc3ccc(O[C@@H]4CCCOC4)nc23)[nH]c2c1C(=O)NCC2` [compound 742, 3-[(3-chloro-2-methoxyphenyl)amino]-2-[6-[(3R)-oxan-3-yloxy]-1,5-naphthyridin-4-yl]-1H,5H,6H,7H-pyrrolo[3,2-c]pyridin-4-one; formic acid], the IC50 at EGFR WT (Ba/F3 cells) was 0.1 to 1 µM; in experiment [1], less than 0.1 µM; in experiment [2], less than 0.1 µM; in experiment [3], less than 0.1 µM; in experiment [4], less than 0.1 µM.
With `COc1c(F)cccc1Nc1c(-c2ccncc2F)[nH]c2c1C(=O)NC[C@H]2CC1COC1` [469a], the IC50 (at EGFR WT (Ba/F3 cells); in experiment [1]; in experiment [2]; in experiment [3]; in experiment [4]) was greater than 1 µM throughout.
Take `COc1c(Cl)cccc1Nc1c(-c2ccncc2F)[nH]c2c1C(=O)NC[C@@H]2CC(=O)N(C)C` [Compound 488]: the IC50 is greater than 1 µM on EGFR WT (Ba/F3 cells); less than 0.1 µM in experiment [1]; less than 0.1 µM in experiment [2]; less than 0.1 µM in experiment [3]; 0.1 to 1 µM in experiment [4].
In the case of `COc1c(Cl)cccc1Nc1c(-c2ccnc3ccc(OCC4(C(F)(F)F)CC4)nc23)[nH]c2c1C(=O)NCC2` [compound 758, 3-[(3-chloro-2-methoxyphenyl)amino]-2-(6-[[1-(trifluoromethyl)cyclopropyl]methoxy]-1,5-naphthyridin-4-yl)-1H,5H,6H,7H-pyrrolo[3,2-c]pyridin-4-one], the IC50 (at EGFR WT (Ba/F3 cells); in experiment [1]; in experiment [2]; in experiment [3]; in experiment [4]) was 0.1 to 1 µM in each case.
In the case of `COCC[C@H]1CNC(=O)c2c1[nH]c(-c1ccncc1F)c2Nc1cccc(F)c1OC` [421a], the concentration for half-maximal inhibition (IC50) is greater than 1 µM at EGFR WT (Ba/F3 cells); 0.1 to 1 µM in experiment [1]; 0.1 to 1 µM in experiment [2]; 0.1 to 1 µM in experiment [3]; 0.1 to 1 µM in experiment [4].
In the case of `CSc1c(F)cccc1Nc1c(-c2ccnc(N)n2)[nH]c2c1C(=O)NCC2` [Compound 716, 2-(2-aminopyrimidin-4-yl)-3-[[3-fluoro-2-(methylsulfanyl)phenyl]amino]-1H,5H,6H,7H-pyrrolo[3,2-c]pyridin-4-one; trifluoroacetic acid], the IC50 at EGFR WT (Ba/F3 cells) is greater than 1 µM; in experiment [1], 0.1 to 1 µM; in experiment [2] it was 0.1 to 1 µM; in experiment [3], 0.1 to 1 µM; in experiment [4], 0.1 to 1 µM.
In the case of `COCC[C@H]1CNC(=O)c2c1[nH]c(-c1ccnc(N)n1)c2Nc1cccc(Cl)c1OC` [Compound 727, (7S)-2-(2-aminopyrimidin-4-yl)-3-[(3-chloro-2-methoxyphenyl)amino]-7-(2-methoxyethyl)-1H,5H,6H,7H-pyrrolo[3,2-c]pyridin-4-one], the IC50 at EGFR WT (Ba/F3 cells) is 0.1 to 1 µM; in experiment [1], less than 0.1 µM; in experiment [2] it was less than 0.1 µM; in experiment [3], less than 0.1 µM; in experiment [4], less than 0.1 µM.
In the case of `COc1c(Nc2c(-c3ccnc(N)n3)[nH]c3c2C(=O)NCC3)ccc(F)c1Cl` [compound 713, 2-(2-aminopyrimidin-4-yl)-3-[(3-chloro-4-fluoro-2-methoxyphenyl)amino]-1H,5H,6H,7H-pyrrolo[3,2-c]pyridin-4-one], the 50% inhibitory concentration (IC50) on EGFR WT (Ba/F3 cells) is greater than 1 µM; in experiment [1], 0.1 to 1 µM; in experiment [2], 0.1 to 1 µM; in experiment [3] it was 0.1 to 1 µM; in experiment [4], greater than 1 µM.
Turning to `COc1c(Cl)cccc1Nc1c(-c2ccnc3ccc(OCCN(C)C)nc23)[nH]c2c1C(=O)NCC2` [compound 736, 3-[(3-chloro-2-methoxyphenyl)amino]-2-[6-[2-(dimethylamino)ethoxy]-1,5-naphthyridin-4-yl]-1H,5H,6H,7H-pyrrolo[3,2-c] pyridin-4-one; formic acid], the IC50 was 0.1 to 1 µM at EGFR WT (Ba/F3 cells); 0.1 to 1 µM in experiment [1]; less than 0.1 µM in experiment [2]; less than 0.1 µM in experiment [3]; 0.1 to 1 µM in experiment [4].
On to `COc1c(Cl)cccc1Nc1c(-c2ccnc3ccc(O[C@@H]4CCOC4)nc23)[nH]c2c1C(=O)NCC2` [compound 743, 3-[(3-chloro-2-methoxyphenyl)amino]-2-[6-[(3R)-oxolan-3-yloxy]-1,5-naphthyridin-4-yl]-1H,5H,6H,7H-pyrrolo[3,2-c]pyridin-4-one], for which the IC50 on EGFR WT (Ba/F3 cells) is 0.1 to 1 µM; in experiment [1], less than 0.1 µM; in experiment [2] it was less than 0.1 µM; in experiment [3], less than 0.1 µM; in experiment [4] it was less than 0.1 µM.
